Data published in patent US9908859B2, “Lysine demethylase inhibitors for myeloproliferative disorders” (Oryzon Genomics S.A., priority 2011, dated 2018).

Columns and labels:
[1] = target: T1, Human recombinant monoamine oxidase MAO-A (Homo sapiens, UniProt P21397); experiment: MAO-A inhibition, kynuramine fluorescence assay; type: biochemical
T1 construct: purchased Sigma Aldrich
T1 sequence (P21397 1-527): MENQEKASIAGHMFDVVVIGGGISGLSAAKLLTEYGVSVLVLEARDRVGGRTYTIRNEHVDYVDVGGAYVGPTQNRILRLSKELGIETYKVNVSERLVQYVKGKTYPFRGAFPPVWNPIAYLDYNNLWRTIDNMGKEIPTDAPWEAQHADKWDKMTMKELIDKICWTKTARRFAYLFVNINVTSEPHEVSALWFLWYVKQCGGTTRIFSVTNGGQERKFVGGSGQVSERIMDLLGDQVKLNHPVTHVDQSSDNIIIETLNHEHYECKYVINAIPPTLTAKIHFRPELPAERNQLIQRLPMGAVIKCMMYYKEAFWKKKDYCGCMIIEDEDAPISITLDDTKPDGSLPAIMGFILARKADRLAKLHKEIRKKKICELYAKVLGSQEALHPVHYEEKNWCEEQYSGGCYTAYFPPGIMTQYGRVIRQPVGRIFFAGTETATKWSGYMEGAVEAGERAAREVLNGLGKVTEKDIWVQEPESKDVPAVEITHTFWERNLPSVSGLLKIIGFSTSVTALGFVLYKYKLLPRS
Description: (§1) Human recombinant monoamine oxidase proteins MAO-A and MAO-B were purchased from Sigma Aldrich. MAOs catalyze the oxidative deamination of primary, secondary and tertiary amines. In order to monitor MAO enzymatic activities and/or their inhibition rate by inhibitor(s) of interest, a fluorescent-based (inhibitor)-screening assay was set up. 3-(2-Aminophenyl)-3-oxopropanamine (kynuramine dihydrobromide, Sigma Aldrich), a non fluorescent compound was chosen as a substrate. Kynuramine is a non-specific substrate for both MAOs activities. While undergoing oxidative deamination by MAO activities, kynuramine is converted into 4-hydroxyquinoline (4-HQ), a resulting fluorescent product.
(§2) The monoamine oxidase activity was estimated by measuring the conversion of kynuramine into 4-hydroxyquinoline. […]
(§3) After leaving the enzyme(s) interacting with the inhibitor, 60 to 90 μM of kynuramine was added to each reaction for MAO-B and MAO-A assay respectively, and the reaction was left for 1 hour at 37° C. in the dark. […] The conversion of kynuramine to 4-hydroxyquinoline, was monitored by fluorescence (excitation at 320 nm, emission at 360 nm) using a microplate reader (Infinite 200, Tecan). Arbitrary units were used to measure levels of fluorescence produced in the absence and/or in the presence of inhibitor.
(§4) The Ki (IC50) of each inhibitor was determined at Vmax/2.

[2] = target: T2, Human recombinant monoamine oxidase MAO-B (Homo sapiens, UniProt P27338); experiment: MAO-B inhibition, kynuramine fluorescence assay; type: biochemical
T2 construct: purchased Sigma Aldrich
T2 sequence (P27338 1-520): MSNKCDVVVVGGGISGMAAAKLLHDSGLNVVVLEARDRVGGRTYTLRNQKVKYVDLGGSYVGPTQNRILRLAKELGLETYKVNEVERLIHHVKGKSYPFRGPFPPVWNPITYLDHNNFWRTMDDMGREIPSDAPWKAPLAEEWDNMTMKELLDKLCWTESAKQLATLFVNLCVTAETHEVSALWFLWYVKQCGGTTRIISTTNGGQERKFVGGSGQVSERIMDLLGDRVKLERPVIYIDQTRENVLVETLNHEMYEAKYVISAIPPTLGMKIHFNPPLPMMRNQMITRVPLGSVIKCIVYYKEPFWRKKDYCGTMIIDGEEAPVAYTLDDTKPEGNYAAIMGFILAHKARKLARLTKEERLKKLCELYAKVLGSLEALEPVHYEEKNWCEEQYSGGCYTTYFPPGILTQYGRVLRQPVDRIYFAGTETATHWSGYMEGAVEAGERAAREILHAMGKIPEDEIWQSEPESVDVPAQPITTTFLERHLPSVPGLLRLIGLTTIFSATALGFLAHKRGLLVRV
Description: as §1, §2, §3, §4

LSD1 = LSD1 (Homo sapiens, UniProt O60341); experiment: LSD1 demethylase inhibition, Amplex Red peroxide/peroxidase-coupled assay with di-methylated H3-K4 peptide; type: biochemical; parameters: purchased BPS Bioscience Inc
Description: Compounds for use in the methods of the invention can be identified by their ability to inhibit LSD1. The ability of the compounds of the invention to inhibit LSD1 can be tested as follows. Human recombinant LSD1 protein was purchased from BPS Bioscience Inc. In order to monitor LSD1 enzymatic activity and/or its inhibition rate by our inhibitor(s) of interest, di-methylated H3-K4 peptide (Millipore) was chosen as a substrate. The demethylase activity was estimated, under aerobic conditions, by measuring the release of H2O2 produced during the catalytic process, using the Amplex® Red peroxide/peroxidase-coupled assay kit (Invitrogen).
Within the experiment, each concentration of inhibitor was tested in triplicate. […] The enzymatic reactions were set up in a 50 mM sodium phosphate, pH 7.4 buffer. […] The conversion of the Amplex® Red reagent to resorufin due to the presence of H2O2 in the assay, was monitored by fluorescence (excitation at 540 nm, emission at 590 nm) using a microplate reader (Infinite 200, Tecan). […]
The maximum demethylase activity of LSD1 was obtained in the absence of inhibitor and corrected for background fluorescence in the absence of LSD1. […]

[3] = system: H3K4 methylation in SH-SY5Y cells; experiment: Western blot for dimethylated H3-K4 in SH-SY5Y cells; type: cell-based
Description: B-actin was used as a loading control.

platelets = experiment: Platelet levels in mice after 5 consecutive once daily injections; type: in vivo, mice (Hsd:Athymic Nude-Foxn1nu); settings: 60 min after last dose
Procedure: On the fifth day, 60 min after the administration, mice were sacrificed and blood was collected in sodium citrate-containing tubes for haemogram analysis. Platelet levels were determined and referred as % of platelets compared with the levels found in mice treated with vehicle. Platelet levels were determined in a standard hematology analyzer (Abacus Junior Vet, from Diatron) following the manufacturer's instructions.
20% 2-hydroxypropyl-β-cyclodextrin in H2O was used as a vehicle. When necessary, 10% DMSO was also added in the vehicle. Each day, compounds were administered in a single intraperitoneal injection with administration volumes of 15 ml/kg.
Mice strain was Hsd:Athymic Nude-Foxn1nu. Animals were maintained in air and temperature controlled cages with regular supply of water and food.

[4] = 10 mg/kg i.p. once daily x 5 days
[5] = 20 mg/kg i.p. once daily x 5 days
[6] = 40 mg/kg i.p. once daily x 5 days

## N[C@H]1CCN(CCN[C@H]2C[C@@H]2c2ccc(-c3cccc(C(F)(F)F)c3)cc2)C1 [Compound 5]
[1]
  IC50: > 500 nM
[2]
  IC50: > 1000 nM
LSD1
  IC50: < 200 nM

## NC(=O)CN[C@@H]1C[C@H]1c1ccc(OCc2ccccc2)cc1 (relative stereo) [Compound 1]
[1]
  IC50: > 2000 nM
[3]; SH-SY5Y cells grown with compound for 1, 2 and 3 days, Dual-1 at 100 μM (FIG. 3)
  H3K4 methylation (western blot): increases H3K4 methylation in cells in a time dependent manner
[3]; SH-SY5Y cells, 1, 2 and 3 days
  potency at increasing global dimethylated H3K4 levels as compared to tranylcypromine: ≥ 10 fold
platelets; 5 mg/kg i.p. once daily x 5 days
  % platelet vs. Vehicle: 91%
platelets; [4]
  % platelet vs. Vehicle: 66%
platelets; [5]
  % platelet vs. Vehicle: 55%
platelets; [6]
  % platelet vs. Vehicle: 34%
LSD1
  IC50: < 200 nM

## CN1CCN(C(=O)CN[C@H]2C[C@@H]2c2ccc(OCc3ccccc3)cc2)CC1 (racemic) [Compound 3]
platelets; 1 mg/kg i.p. once daily x 5 days
  % platelet vs. Vehicle: 46%
platelets; 3 mg/kg i.p. once daily x 5 days
  % platelet vs. Vehicle: 16%
platelets; [4]
  % platelet vs. Vehicle: 5%

## N[C@H]1CC1c1ccc(-c2cccc(O)c2)cc1 (stereo partly shown) [Compound 6]
platelets; 17 mg/kg i.p. once daily x 5 days
  % platelet vs. Vehicle: 56%
platelets; 34 mg/kg i.p. once daily x 5 days
  % platelet vs. Vehicle: 46%
platelets; 52 mg/kg i.p. once daily x 5 days
  % platelet vs. Vehicle: 63%

## CS(=O)(=O)Nc1cccc(-c2ccc(C3C[C@@H]3N)cn2)c1 (stereo partly shown) [Compound 7]
platelets; [5]
  % platelet vs. Vehicle: 68%
platelets; [6]
  % platelet vs. Vehicle: 44%
